The subject of test [1] is periodontal disease and bone loss (intrabony defects around second and fourth premolars). Description: Minipig periodontal disease model: periodontal flap surgery with a single application, μCT and conventional radiographic imaging. It counts as in vivo, minipigs (Hanford). As to the method: The Institutional Animal Care Committee at the Forsyth Institute and PARF, Inc reviewed and approved the animal protocol prior any study activities. Two adult (18-24 months old) female minipigs (Hanford) were purchased and acclimatized for at least 7 days before any procedures. All surgical and follow up procedures and housing throughout the study duration (about 6 months including disease induction period) were performed at an animal and surgical facility at PARF, Inc.
Anesthesia and surgical procedures were conducted as described in Hasturk H, Kantarci A, Ghattas M, Schmidt M, Giordano R, Ashman A, Diekwisch T, Van Dyke T E. The Use of Light/Chemically-Hardened Poly-Methyl-Methacrylate, Poly-Hydroxyl-Ethyl-Methacrylate and Calcium Hydroxide Graft Material in Combination with Polyanhydride around Implants in Minipigs: Part I: Immediate Stability and Function. J Periodontol. 2011 September; 82(9):1339-1352, which is incorporated by reference in its entirety herein. Briefly, minipigs were premedicated with Telazol (4-6 mg/kg IM) and xylazine (2.2 mg/kg IM) and were maintained by 3-4% isoflurane for induction and 0.5-2% isoflurane for maintenance. Each pig was anesthetized for approximately two hours during ligature placement and intraoral photographs. Endotracheal intubation was performed whenever the pig was fully anesthetized. Periodontal disease and bone loss were induced by creating intrabony defects using burs and ligatures in all four quadrants around the same teeth (second and fourth premolars) (FIG. 2A). After ligature placement, animals were fed with soft diet to stimulate plaque accumulation around ligatures for 6 weeks.
Oral examination, including digital photographs, were repeated at 2 and 4 weeks and ligatures were removed at 6 weeks. The sites were left untreated for about 38 days to stabilize the periodontal disease and bone loss obtained and to eliminate the self healing aspect of the bone defects. Accordingly, the defects were chronically created for the baseline treatments (FIG. 2B).
At Day 0 (baseline), the minipigs were anesthetized as described above. […]

Test [2] relates to acute inflammation (PMN infiltration, pro-inflammatory cytokines). The conditions noted are these: mouse model of acute inflammation, cited from earlier work.
The subject of test [3] is periodontitis and inflammation-induced bone destruction. As to conditions: rabbit periodontitis; cited from earlier work.

For 9,12 benzo-LXA4 [9,12, benzo LXA4], the “number of applications after which oral osteogenesis effects were observed” value in test [1] (applied to debrided chronic periodontal lesion at periodontal flap surgery) is reported as “observed after only a single application”. In test [1] (surgery plus 9,12 benzo LXA4 vs surgery alone (FIG. 3)), the “bone regeneration by conventional radiographic imaging of teeth” value is reported as “regenerated bone to essentially pre-disease levels”. Also, the “bone osteogenesis by micro-computed tomography (μCT) imaging of teeth” value in test [1] (surgery plus 9,12 benzo LXA4 vs surgery alone, 0.1-1 μM, light gel, applied at flap surgery, bone covering root notches (FIG. 3)) was “induction of bone osteogenesis following LXA4 treatment was observed”. In test [2] (in vivo), the “levels of pro-inflammatory cytokines” value is listed as “significantly reducing” and the “polymorphonuclear leukocyte (PMN) infiltration” value is recorded as “significantly reducing”. Besides, in test [2], the anti-inflammatory properties result was “potent anti-inflammatory properties”.
For the compound `CC[C@@H](O)/C=C/C=C\C[C@@H](O)/C=C/C=C/C=C\[C@@H](O)CCCC(=O)O` [resolvin E1 (RVE1), resolvin E1], in test [3], the bone loss entry is “protects from bone loss”, the inflammation result is “reduces inflammation” and the tissue regeneration entry is reported as “stimulates tissue regeneration”.

These data come from US11896571B2, “Methods for increasing oral osteogenesis using lipoxin A4 (LXA4) and its analogs” (Forsyth Dental Infirmary for Children, priority 2013, dated 2024).
